From US20160281125A1, “ANTIMICROBIAL COMPOUND SUSCEPTIBILITY TEST” (priority 2013, published 2016)

Tests used:
[1] = test system: K. pneumo 700603; assay: Selective lysis test, OD600 turbidity (Example 1); format: cell-based, Klebsiella pneumoniae
Protocol: (§1) An isolated colony from an overnight Tryptocase Soy Agar (TSA) plate of each bacterial strain was suspended in 1 ml Tryptocasc Soy Broth (TSB) in a 5 ml BD polystyrene round bottom tube. TSB cultures were incubated shaking at 37° C. overnight. Ten of the overnight culture was inoculated into lml TSB and incubated shaking at 37° C. for three hours. Two […] aliquots of each log-phase culture were then transferred to two 2 ml Eppendorf microcentrifuge tubes. One tube contained 5000 of Normal Saline (BD); the second tube contained 5000 Normal Saline with meropenem at 10 μg/ml (final concentration of meropenem of 6.67 10 μg/ml). Tubes were inverted and then incubated at 37° C. stagnant for thirty minutes. Then […] of lysis buffer (0.5% SDS in PSB) (final concentration of SDS of 0.125%) was added to each tube and the tubes were vortexed for 5 seconds. Post incubation, all tubes were spun at 10000 G for 5 minutes. Supernatant was decanted and the pellet resuspended in Normal Saline. Tubes were vortexed again. OD600 was measured using Eppendorf uvettes in a spectrophotometer. The delta between the OD600 of the normal saline control and the OD600 for the test sample exposed to meropenem in normal saline was used to determine susceptibility of the bacterial strain to meropenem.

[2] = test system: K. pneumo 9633; assay: Selective lysis test, OD600 turbidity (Example 1); format: cell-based, Klebsiella pneumoniae
Protocol: as §1

[3] = test system: K. pneumo 8308; assay: Selective lysis test, OD600 turbidity (Example 1); format: cell-based, Klebsiella pneumoniae
Protocol: as §1

[4] = test system: K. pneumo 33495; assay: Selective lysis test, OD600 turbidity (Example 1); format: cell-based, Klebsiella pneumoniae
Protocol: as §1

[5] = test system: K. pneumoniae strain BAA1705 KPC+; assay: Selective lysis test, BacUni QuickFISH staining (Example 3); format: cell-based; conditions: FIG. 5, meropenem 10 μg/ml, 30 min, SDS lysis
Excerpt: (§2) An alternative to the spectrophotometer-based measurement of changes in turbidity for measuring cell lysis following treatment with the cell lysis conditions in Examples 1 and 2 is to stain samples using a stain that distinguishes between intact cells and lysed cells. In this example staining with BacUni QuickFISH™ was used to identify intact (i.e., non-lysed) cells. BacUN1 is a universal bacteria PNA probe that binds to an rRNA sequence present in most Gram-positive and Gram-negative bacteria. The PNA probe binds to universal rRNA in intact bacterial cells and the entire cell will appears green with fluorescent microscopy. If the bacterial cell had been lysed then the rRNA target would have been released from the bacterial cell and even of somewhat labeled it would not appear as a fluorescent bacterial cell.
(§3) An isolated colony from an overnight Tryptocase Soy Agar (TSA) plate of each bacteria was suspended in 1 ml Tryptocase Soy Broth (TSB) in a 5 ml BD polystyrene round bottom tube. TSB cultures were incubated at 37° C. overnight. Ten μl of overnight culture was inoculated into 1 ml TSB and incubated shaking at 37° C. for three hours. Two 250 μl aliquots of each log-phase culture was transferred to two 2 ml Eppendorf microcentrifuge tubes. One tube contained 500 μl of Normal Saline (BD); the second tube contained 500 μl Normal Saline with meropenem at 10 μg/ml. Tubes were inverted and then incubated at 37° C. stagnant for thirty minutes. Then […] (0.5% SDS in PSB) was added to each tube and the tubes were vortexed for 5 seconds. Post incubation, the entire culture was filtered through a 1 uM polycarbonate 18 mm filter. The filter was transferred to a plain glass slide and placed on a 55° C. heat block. Then 2 drops of 100% methanol were added to adhere the filter to the slide. Then 30 μl of BacUni QuickFISH™ hybridization buffer was added to the slide and a 50×22 mm coverslip was applied. The slide was then incubated at 55° C. for 15 minutes. The slide was viewed on fluorescence microscope using 60× oil immersion on Dual TxR/FITC. Images were taken with a 1 second exposure.

[6] = test system: K. pneumoniae strain 3456; assay: as above; format: cell-based; conditions: FIG. 1; K. pneumoniae 3456; meropenem 10 μg/ml, 30 min, SDS lysis
Excerpt: as §2, §3

[7] = test system: E. coli strain 35218; assay: as above; format: cell-based; conditions: FIG. 3; E. coli 35218; meropenem 10 μg/ml, 30 min, SDS lysis
Excerpt: as §2, §3

[8] = test system: E. coli strain 23858; assay: as above; format: cell-based; conditions: FIG. 2; E. coli 23858; meropenem 10 μg/ml, 30 min, SDS lysis
Excerpt: as §2, §3

[9] = test system: K. pneumoniae strain 13882; assay: as above; format: cell-based; conditions: FIG. 2; K. pneumoniae 13882; meropenem 10 μg/ml, 30 min, SDS lysis
Excerpt: as §2, §3

[10] = test system: E. aero 13048; assay: Selective lysis test, OD600 turbidity (Example 1); format: cell-based, Enterobacter aerogenes
Protocol: as §1

[11] = OD600 vs control without meropenem
[12] = meropenem 10 μg/ml, 30 min, SDS lysis buffer + vortex

What does the source list for C[C@@H](O)[C@H]1C(=O)N2C(C(=O)O)=C(S[C@@H]3CN[C@H](C(=O)N(C)C)C3)[C@H](C)[C@H]12 [meropenem]?
R or S [1]: S (a percentage change of greater than about 85% indicates a strain is susceptible); % Change [1, 11]: 94%; Mero OD600 [1, 12]: 0.065; R or S [2]: S (a percentage change of greater than about 85% indicates a strain is susceptible); % Change [2, 11]: 99%; Mero OD600 [2, 12]: 0.015; R or S [3]: S (a percentage change of greater than about 85% indicates a strain is susceptible); % Change [3, 11]: 98%; Mero OD600 [3, 12]: 0.053; R or S [4]: S (a percentage change of greater than about 85% indicates a strain is susceptible); % Change [4, 11]: 95%; Mero OD600 [4, 12]: 0.097; number of BacUni QuickFISH stained cells, treated vs not treated [5]: similarity in the number of stained cells; number of BacUni QuickFISH stained cells, treated vs not treated [6]: significant reduction in the number of stained cells; number of BacUni QuickFISH stained cells, treated vs not treated [7]: significant reduction in the number of stained cells; number of BacUni QuickFISH stained cells, treated vs not treated [8]: significant reduction in the number of stained cells; number of BacUni QuickFISH stained cells, treated vs not treated [9]: significant reduction in the number of stained cells; R or S [10]: S (a percentage change of greater than about 85% indicates a strain is susceptible); % Change [10, 11]: 97%; Mero OD600 [10, 12]: 0.077
